# Read-outs that look alike come from different tables or passages of the source.
# Key:
# Test in all cases: Determination of MIC values (BHI broth, 96 well microtiter plate)
# Assay type in all cases: cell-based
# [1] = test system: vancomycin-resistant Enterococcus spp. (VRE); conditions: BHI broth; for MIC: Enterococcus, VRE, read-out: MIC VREF
# How it was run: (§1)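 BHI broth microdilution; final compound 25, 12.5, 6.25, 3.125, 1.56, 0.78, 0.39, 0 µg/mL (1% DMSO). Inoculum 10^5–10^6 cells/mL; 37° C, ~7-10% CO2, ~16 h. MIC = lowest concentration, no observable growth.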
# Streptococcus pneumoniae = conditions: BHI broth; for MIC: Streptococcus pneumoniae, read-out: MIC S. pneu
# How it was run: as §1
# [2] = test system: methicillin-resistant Staphylococcus aureus (MRSA); conditions: BHI broth; for MIC: Staphylococcus aureus, MRSA, read-out: MIC MRSA
# How it was run: as §1
# [3] = 16 h, 37° C., overnight (about 16 hours)
# [4] = 37° C., overnight (about 16 hours)
"MIC ([1]; 16 h, 37° C., about 16 hours) [µg/mL]","MIC (Streptococcus pneumoniae; 37° C., about 16 hours) [µg/mL]","MIC ([2]; 16 h, 37° C., about 16 hours) [µg/mL]","MIC ([1]; VREF, overnight 37° C.) [µg/mL]","MIC (Streptococcus pneumoniae; S. pneu, overnight 37° C.) [µg/mL]",MIC ([2]; overnight 37° C.) [µg/mL],Compound,other results
< 7,< 7,< 7,–,–,–,CN(C)CCN(C)C(=O)c1cc(-c2cn(C)c3ccc(Br)cc23)nc2cc(Cl)ccc12 [Example 507],–
–,–,–,< 7,< 7,< 7,Cn1cc(-c2ccc3cc(Cl)ccc3n2)c2cc([N+](=O)[O-])ccc21 [Example 232],–
–,–,–,< 7,< 7,< 7,NCC1CCCC(CNC(=O)c2cc(-c3c[nH]c4ccc(Br)cc34)nc3cc(Cl)cc(Cl)c23)C1 (stereo not drawn) [Example 248],–
> 25,< 7,< 7,–,–,–,Brc1ccc2[nH]cc(-c3nc4ccc(C#CCN5CCCCC5)cc4c4c3CCO4)c2c1 [Example 517],–
–,–,–,< 25,< 7,< 7,NCc1ccc(CNC(=O)c2cc(-c3c[nH]c4ccc(Br)cc34)nc3c(C#CCN4CCSCC4)cccc23)cc1 [Example 271],–
–,–,–,–,–,–,NCC1CCCC(CNC(=O)c2cc(-c3c[nH]c4ccc(Br)cc34)nc3ccc(Br)cc23)C1 (stereo not drawn) [Example 123],"MIC [1, 3]: < 7 µg/mL; MIC (Streptococcus pneumoniae; [4]): < 7 µg/mL; MIC [2, 3]: < 7 µg/mL"
–,–,–,< 7,< 7,< 7,NCc1ccc(CNC(=O)c2cc(-c3c[nH]c4ccc(Br)cc34)nc3ccc(C#CCNCCc4ccc(Cl)cc4)cc23)cc1 [Example 235],–
< 7,< 7,< 7,–,–,–,Cn1cc(-c2cc(C(=O)NCCN)c3cc(C#CCN4CC=CC4)ccc3n2)c2cc(Br)ccc21 [Example 406],–
> 25,< 25,< 25,–,–,–,NCCCNC(=O)c1cc(-c2c[nH]c3cc(F)ccc23)nc2cc(F)ccc12 [Example 495],–
–,–,–,–,–,–,OCc1cc(-c2c[nH]c3ccc(Br)cc23)nc2cc(F)ccc12 [Example 490],"MIC VREF ([1]; 37° C., about 16 hours): >25 µg/mL; MIC S. pneu (Streptococcus pneumoniae; 37° C., about 16 hours): < 7 µg/mL; MIC MRSA ([2]; 37° C., about 16 hours): < 7 µg/mL"
–,–,–,–,–,–,NC1CCCCC1NC(=O)c1cc(-c2c[nH]c3ccc(Br)cc23)nc2ccc(I)cc12 (stereo not drawn) [Example 112],"MIC [1, 3]: < 7 µg/mL; MIC (Streptococcus pneumoniae; [4]): < 7 µg/mL; MIC [2, 3]: < 7 µg/mL"
–,–,–,> 25,> 25,> 25,CC(C)(C)OC(=O)n1cc(/C=N/c2cccc(Cl)c2)c2cc(Br)ccc21 [Example 381],–
–,–,–,< 25,< 7,< 25,Cc1cccc2c(-c3ccc4cc(Cl)ccc4n3)cn(C)c12 [Example 217],–
–,–,–,< 25,< 7,< 25,NCc1ccc(CNC(=O)c2cc(-c3c[nH]c4ccc(Br)cc34)nc3c(C#CCN4CCCCC4)cccc23)cc1 [Example 263],–
–,–,–,–,–,–,COc1ccc(NC(=O)c2cc(-c3c[nH]c4ccc(Br)cc34)nc3ccc(C(F)(F)F)cc23)cc1 [Example 170],"MIC [1, 3]: > 25 µg/mL; MIC (Streptococcus pneumoniae; [4]): < 7 µg/mL; MIC [2, 3]: < 7 µg/mL"
< 7,< 7,< 7,–,–,–,NCCNC(=O)c1cc(-c2c[nH]c3ccc(Br)cc23)nc2cc(Cl)c(C#CCNCCc3ccccc3)cc12 [Example 530],–
–,–,–,–,–,–,Fc1ccc2[nH]cc(-c3ccc4cc(Cl)ccc4n3)c2c1 [Example 191],"MIC [1, 3]: < 25 µg/mL; MIC (Streptococcus pneumoniae; [4]): < 7 µg/mL; MIC [2, 3]: < 7 µg/mL"
< 7,< 7,< 7,–,–,–,NCc1cc(-c2c[nH]c3ccc(Br)cc23)nc2cc(F)ccc12 [Example 509],–
< 7,< 7,< 7,–,–,–,Cn1cc(-c2cc(C(=O)NCCN)c3cc(C#CCNCCc4ccc(Cl)cc4)ccc3n2)c2cc(Br)ccc21 [Example 400],–
–,–,–,> 25,> 25,> 25,Clc1ccc2nc(-c3c[nH]c4c(Br)cccc34)ccc2c1 [Example 355],–
–,–,–,< 7,< 7,< 7,NCc1ccc(CNC(=O)c2cc(-c3c[nH]c4ccc(Br)cc34)nc3cc(C#CCN4CCCCC4)ccc23)cc1 [Example 262],–
–,–,–,< 7,< 7,< 7,NCc1ccc(/C=C/c2cc(-c3c[nH]c4ccc(Br)cc34)nc3cc(Br)ccc23)cc1 [Example 374],–
–,–,–,> 25,> 25,> 25,Clc1cc(-c2c(-c3ccccc3)[nH]c3ccccc23)nc2ccccc12 [Example 353],–

# Reference: patent US6376670B1, “Quinoline-indole antimicrobial agents, uses and compositions related thereto” (Sepracor Inc., priority 1997, dated 2002)
